A word on the IC50: it is the concentration needed to halve the response being measured.

We go through 18 compounds from patent US10428080B2, “TBK/IKK inhibitor compounds and uses thereof” (Merck Patent GmbH, priority 2015, dated 2019).

Counter-ions that a name gives are not always drawn. Like-named read-outs stand apart in the source and are kept apart here.

Experiment [1] deals with T1, TBK1 (Homo sapiens, UniProt Q9UHD2).
T1 sequence (Q9UHD2 1-729): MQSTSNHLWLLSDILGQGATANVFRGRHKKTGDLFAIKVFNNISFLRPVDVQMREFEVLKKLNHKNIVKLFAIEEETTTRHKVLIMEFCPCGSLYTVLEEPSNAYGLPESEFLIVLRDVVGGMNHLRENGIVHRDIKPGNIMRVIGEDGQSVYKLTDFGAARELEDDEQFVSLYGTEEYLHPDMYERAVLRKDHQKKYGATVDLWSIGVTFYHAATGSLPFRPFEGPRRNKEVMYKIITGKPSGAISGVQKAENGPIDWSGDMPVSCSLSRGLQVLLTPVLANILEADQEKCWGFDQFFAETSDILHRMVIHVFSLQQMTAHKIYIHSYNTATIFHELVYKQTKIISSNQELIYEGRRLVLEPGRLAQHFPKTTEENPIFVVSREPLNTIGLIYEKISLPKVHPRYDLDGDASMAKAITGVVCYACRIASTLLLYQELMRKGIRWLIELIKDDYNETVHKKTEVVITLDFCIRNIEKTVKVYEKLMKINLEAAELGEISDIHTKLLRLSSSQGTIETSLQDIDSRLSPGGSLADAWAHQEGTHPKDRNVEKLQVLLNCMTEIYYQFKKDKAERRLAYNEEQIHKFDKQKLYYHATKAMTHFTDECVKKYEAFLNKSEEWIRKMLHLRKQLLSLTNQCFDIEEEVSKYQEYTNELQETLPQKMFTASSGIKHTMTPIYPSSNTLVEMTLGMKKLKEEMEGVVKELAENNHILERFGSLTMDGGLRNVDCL
Briefly: TBK Biochemical Assay. The conditions noted are these: read-out: TBK1 IC50. In outline: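 TBK1 enzyme and substrate incubated with compounds (10-point 1:4 dilution, top 30 uM final, 1% DMSO) for 90 min at 25° C, then stopped. Substrate/product peaks read by microfluidic mobility-shift (Caliper LabChip); 10 uM staurosporine as full-inhibition control.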

Experiment [2] concerns phosphorylation of the IRF-3 protein in MDA-MB-468 cells. Briefly: pIRF3 immunocytochemistry cell based assay. The conditions noted are these: Homo sapiens. The essentials:
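MDA-MB-468 cells got compounds (10-point, 3-fold from 10 uM) for 1 h at 37 °C, then 10 ug/ml Poly(I:C) for 2 h. Fixed, permeabilized cells were immunostained for pIRF3 with AlexaFluor488 and counterstained with PI. % phosphorylation was read by laser scanning cytometry, and IC50 curves were fitted.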

Experiment [3] concerns the target T2, IKKε (Homo sapiens, UniProt Q14164).
T2 sequence (Q14164 1-716): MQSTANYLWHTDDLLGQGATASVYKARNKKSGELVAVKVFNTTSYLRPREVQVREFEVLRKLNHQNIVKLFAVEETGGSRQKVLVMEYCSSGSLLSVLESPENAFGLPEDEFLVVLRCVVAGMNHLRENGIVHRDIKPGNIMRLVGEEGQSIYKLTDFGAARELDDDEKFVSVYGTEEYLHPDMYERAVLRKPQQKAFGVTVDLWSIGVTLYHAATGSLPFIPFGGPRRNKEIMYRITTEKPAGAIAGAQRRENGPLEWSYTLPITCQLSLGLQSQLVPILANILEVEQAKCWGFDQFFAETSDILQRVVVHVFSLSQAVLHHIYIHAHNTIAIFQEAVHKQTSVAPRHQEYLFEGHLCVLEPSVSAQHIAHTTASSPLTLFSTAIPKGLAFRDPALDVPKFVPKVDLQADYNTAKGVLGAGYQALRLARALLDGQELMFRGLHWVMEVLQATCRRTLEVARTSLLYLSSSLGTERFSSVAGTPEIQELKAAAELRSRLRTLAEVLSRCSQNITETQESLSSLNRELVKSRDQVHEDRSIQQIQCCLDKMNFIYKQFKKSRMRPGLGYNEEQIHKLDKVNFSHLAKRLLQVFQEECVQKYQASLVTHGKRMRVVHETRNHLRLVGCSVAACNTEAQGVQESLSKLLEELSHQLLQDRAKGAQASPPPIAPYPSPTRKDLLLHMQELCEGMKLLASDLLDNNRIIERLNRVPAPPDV
Nature of the experiment: IKKe Biochemical Assay. The conditions noted are these: read-out: IKKε IC50. The essentials: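 Recombinant IKKε and substrate were incubated with compound (10-point 1:4 series, top 30 uM final, 1% DMSO) for 90 min at 25° C, then stopped. Substrate-to-product conversion was read by LabChip microfluidic mobility shift; 10 uM staurosporine served as full-inhibition wells.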

Where [4] appears, read: MDA-MB-468 cells, Poly(I:C) stimulation, read-out: pIRF3 IC50.

With `COc1cc(C(=O)N(C)C)ccc1-c1cc2nccc(-c3cnc(NC4CCOCC4)c(C#N)c3)c2o1` [Compound 324, 4-(7-(5-cyano-6-(tetrahydro-2H-pyran-4-ylamino)pyridin-3-yl)furo[3,2-b]pyridin-2-yl)-3-methoxy-N,N-dimethylbenzamide], the IC50 was under 100 nM in experiment [1], 100 to 1000 nM in experiment [2] (setting [4]) and under 100 nM in experiment [3].
Take `COc1cc(C(=O)O)ccc1-c1cc2nccc(-c3ccc(OC4CCOCC4)c(C#N)c3)c2o1` [Compound 21]: the figures for the IC50 in experiment [1], in experiment [2] (setting [4]) and in experiment [3] were under 100 nM, 1000 to 5000 nM and under 100 nM, respectively.
Consider `COc1cc(C(=O)O)ccc1-c1cc2nccc(-c3ccc(NC4CCOCC4)c(C#N)c3)c2o1` [Compound 88], for which the IC50 in experiment [1] was under 100 nM; in experiment [2] (setting [4]) it was 100 to 1000 nM; in experiment [3] it was under 100 nM.
Regarding `COc1cc(C(=O)NC2CN(C)CCC2O)ccc1-c1cc2nccc(-c3ccc(OC4CCOCC4)c(C#N)c3)c2o1` (stereo not drawn) [Compound 348, 4-[7-[3-cyano-4-(oxan-4-yloxy)phenyl]furo[3,2-b]pyridin-2-yl]-N-(4-hydroxy-1-methylpiperidin-3-yl)-3-methoxybenzamide], the results for the IC50 in experiment [1], in experiment [2] (setting [4]) and in experiment [3] were under 100 nM, 100 to 1000 nM and under 100 nM, respectively.
As to `COc1cc(C(=O)N(C)C)cnc1-c1cc2nccc(-c3ccc(NC4CCOCC4)c(C#N)n3)c2o1` [Compound 315, 6-(7-[6-cyano-5-[(oxan-4-yl)amino]pyridin-2-yl]furo[3,2-b]pyridin-2-yl)-5-methoxy-N,N-dimethylpyridine-3-carboxamide hydrochloride], the IC50 in experiment [1] is under 100 nM; in experiment [2] (MDA-MB-468, read-out: pIRF3 IC50), 100 to 1000 nM; in experiment [3] it was under 100 nM.
As to `COc1cc(C(=O)NC2CN3CCC2CC3)ccc1-c1cc2nccc(-c3ccc(N4CC[C@@H](F)C4)c(C#N)c3)c2o1` (stereo partly drawn) [Compound 146, N-(1-Aza-bicyclo[2.2.2]oct-3-yl)-4-{7-[3-cyano-4-((R)-3-fluoro-pyrrolidin-1-yl)-phenyl]-furo[3,2-b]pyridin-2-yl}-3-methoxy-benzamide], the IC50 in experiment [1] was under 100 nM; in experiment [2] (setting [4]), 100 to 1000 nM; in experiment [3], under 100 nM.
Turning to `COc1cc(C(=O)N2CCC(CO)C2)ccc1-c1cc2nccc(-c3ccc(NC4CCOCC4)c(C#N)c3)c2o1` (stereo not drawn) [Compound 91, 5-{2-[4-(3-Hydroxymethyl-pyrrolidine-1-carbonyl)-2-methoxy-phenyl]-furo[3,2-b]pyridin-7-yl}-2-(tetrahydro-pyran-4-ylamino)-benzonitrile], the IC50 in experiment [1] was under 100 nM; in experiment [2] (setting [4]), 100 to 1000 nM; in experiment [3], under 100 nM.
Turning to `COc1cc(C(=O)N(C)C)cnc1-c1cc2ncc(F)c(-c3ccc(OC4CCOCC4)c(C#N)c3)c2o1` [Compound 317, 6-(7-(3-cyano-4-(tetrahydro-2H-pyran-4-yloxy)phenyl)-6-fluorofuro[3,2-b]pyridin-2-yl)-5-methoxy-N,N-dimethylnicotinamide], the concentration for half-maximal inhibition (IC50) in experiment [1] was under 100 nM; in experiment [2] (setting [4]), 100 to 1000 nM; in experiment [3], under 100 nM.
On to `COc1cc(C(=O)N2CCN(C)CC2)ccc1-c1cc2nccc(-c3ccc(N4CC[C@H](F)C4)c(C#N)c3)c2o1` [Compound 16, 2-((S)-3-Fluoro-pyrrolidin-1-yl)-5-{2-[2-methoxy-4-(4-methyl-piperazine-1-carbonyl)-phenyl]-furo[3,2-b]pyridin-7-yl}-benzonitrile], for which the IC50 in experiment [1] is under 100 nM; in experiment [2] (setting [4]) it was 100 to 1000 nM; in experiment [3], under 100 nM.
Consider `N#Cc1cc(-c2ccnc3cc(-c4ccc(C(=O)N5CCN(C6CC6)CC5)cc4)oc23)ccc1OC1CCOCC1` [Compound 133, 5-{2-[4-(4-Cyclopropyl-piperazine-1-carbonyl)-phenyl]-furo[3,2-b]pyridin-7-yl}-2-(tetrahydro-pyran-4-yloxy)-benzonitrile], for which the values for the IC50 in experiment [1], in experiment [2] (setting [4]) and in experiment [3] were under 100 nM, 1000 to 5000 nM and under 100 nM, respectively.
With `COc1cc(C(=O)N(C)C)ccc1-c1cc2nccc(-c3ccc(OC4CCNCC4(F)F)c(C#N)c3)c2o1` (stereo not drawn) [Compound 71, 4-{7-[3-Cyano-4-(3,3-difluoro-piperidin-4-yloxy)-phenyl]-furo[3,2-b]pyridin-2-yl}-3-methoxy-N,N-dimethyl-benzamide hydrochloride], the IC50 in experiment [1], in experiment [2] (setting [4]) and in experiment [3] was under 100 nM each time.
As to `COc1cc(C(=O)N(C)C)ccc1-c1cc2nccc(-c3ccc(OC4CCOCC4)c(C#N)n3)c2o1` [Compound 31, 4-{7-[6-Cyano-5-(tetrahydro-pyran-4-yloxy)-pyridin-2-yl]-furo[3,2-b]pyridin-2-yl}-3-methoxy-N,N-dimethyl-benzamide], the IC50 in experiment [1], in experiment [2] (setting [4]) and in experiment [3] was under 100 nM throughout.
Turning to `CN(C)C(=O)c1ccc(-c2cc3ncc(F)c(-c4ccc(NC5CCOCC5)c(C#N)c4)c3o2)c(F)c1` [Compound 300, 4-(7-[3-cyano-4-[(oxan-4-yl)amino]phenyl]-6-fluorofuro[3,2-b]pyridin-2-yl)-3-fluoro-N,N-dimethylbenzamide], the IC50 is 100 to 1000 nM in experiment [1], 1000 to 5000 nM in experiment [2] (setting [4]) and 100 to 1000 nM in experiment [3].
As for `COc1cc(C(=O)NC2(C)CCCN(C)C2)ccc1-c1cc2nccc(-c3ccc(OC4CCOCC4)c(C#N)c3)c2o1` (stereo not drawn) [Compound 367, 4-[7-[3-cyano-4-(oxan-4-yloxy)phenyl]furo[3,2-b]pyridin-2-yl]-N-(1,3-dimethylpiperidin-3-yl)-3-methoxybenzamide], the IC50 in experiment [1], in experiment [2] (setting [4]) and in experiment [3] was under 100 nM throughout.
In the case of `COc1cc(C(=O)NC2(CO)CCCC2)ccc1-c1cc2nccc(-c3ccc(OC4CCOCC4)c(C#N)c3)c2o1` [Compound 475, 4-{7-[3-Cyano-4-(tetrahydro-pyran-4-yloxy)-phenyl]-furo[3,2-b]pyridin-2-yl}-N-(1-hydroxymethyl-cyclopentyl)-3-methoxy-benzamide], the half-maximal inhibitory concentration (IC50) in experiment [1] is under 100 nM; in experiment [2] (setting [4]), 100 to 1000 nM; in experiment [3], under 100 nM.
`COc1cc(C(=O)N2C3CCCC2CC3)ccc1-c1cc2nccc(-c3ccc(OC4CCOCC4)c(C#N)c3)c2o1` [Compound 509]: the results for the IC50 in experiment [1], in experiment [2] (setting [4]) and in experiment [3] were under 100 nM, 100 to 1000 nM and under 100 nM, respectively.
Take `COc1cc(C(=O)N2CC3CC2CO3)ccc1-c1cc2nccc(-c3ccc(OC4CCOCC4)c(C#N)c3)c2o1` (stereo not drawn) [Compound 1, 5-{2-[2-Methoxy-4-(2-oxa-5-aza-bicyclo[2.2.1]heptane-5-carbonyl)-phenyl]-furo[3,2-b]pyridin-7-yl}-2-(tetrahydro-pyran-4-yloxy)-benzonitrile]: the IC50 in experiment [1], in experiment [2] (setting [4]) and in experiment [3] was under 100 nM throughout.
`COc1cc(C(=O)N2CCC(CO)C2)ccc1-c1cc2nccc(-c3ccc(N4CC[C@H](F)C4)c(C#N)c3)c2o1` (stereo partly drawn) [Compound 76, 2-((S)-3-Fluoro-pyrrolidin-1-yl)-5-{2-[4-(3-hydroxymethyl-pyrrolidine-1-carbonyl)-2-methoxy-phenyl]-furo[3,2-b]pyridin-7-yl}-benzonitrile]: the IC50 in experiment [1] is under 100 nM; in experiment [2] (setting [4]), 100 to 1000 nM; in experiment [3] it was under 100 nM.
